According to patent publication US20200055871A1, “ACTIVATORS OF THE RETINOIC ACID INDUCIBLE GENE "RIG-I" PATHWAY AND METHODS OF USE THEREOF” (Kineta Immuno-Oncology LLC, priority 2018, published 2020):

Assays:
[1] = tested on: IRF3-deficient THP1-Lucia™ ISG IRF3−/− cells; assay: THP1-Lucia ISG IRF3−/− reporter assay (IRF3-deficient control cells); format: cell-based, human; conditions: compound 5 to 20 μM, 18 h
Experimental: The promoter was comprised of five IFN-stimulated response elements (ISRE) fused to an ISG54 minimal promoter which is unresponsive to NF-kB or AP-1 pathways. […] The IRF3-deficient THP1-Lucia™ ISG IRF3−/−reporter cell line was generated by CRISPR technology from the parent THP1-Lucia™ ISG reporter cell line.
THP1-Lucia™ ISG cells and IRF3-deficient THP1-Lucia™ ISG IRF3−/−cells were differentiated with PMA (100 ng/ml) and stimulated with compounds at the indicated concentrations (5 to 20 μM), positive control, or not treated (background). Luciferase secretion was quantified using the QUANTI-Luc luciferase assay system (InvivoGen) 18 h after stimulation. Data are shown as fold increase luciferase activity over background in Table 7 and represent the IRF3-dependent ISG54 promoter activity by the THP1-Lucia™ ISG cells in response to compounds. […] The fold increase of compounds (10 μM, *20 μM, **5 μM) induced IRF3 dependent luciferase activity is indicated as follows: “≠” indicates less than 2.4 fold increase; “+” indicates a 2.4-4.9 fold increase; “++” indicates a 5-9.9 fold increase; “+++” indicates a 10-19 fold increase; “++++” indicates a 20-39 fold increase; “+++++” indicates greater than or equal to 40 fold increase.

[2] = tested on: RIG-I deficient CT26 RIG-I−/− cells; assay: CXCL10 secretion by RIG-I deficient CT26 RIG-I−/− cells (ELISA); format: cell-based, murine; conditions: compound 5 to 20 μM, 24 h; also: key: −: about 0 pg/mL of CXCL10, or below the level of quantitation
How it was run: (§1)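 CT26 murine colon carcinoma cells, parental or CRISPR RIG-I−/−, seeded and grown 24 hr at 37° C, then treated with compounds at 10 μM, or at 5 or 20 μM for some. Secreted CXCL10 measured by ELISA in supernatants 24 h after treatment and reported in pg/mL bands.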

[3] = tested on: IRF3 signaling pathway in THP1-Lucia™ ISG cells; assay: THP1-Lucia ISG reporter assay: induction of IRF3-dependent gene expression (secreted luciferase); format: cell-based, human; conditions: PMA-differentiated cells, 18 h after stimulation; for fold induction at 10 µM: Homo sapiens, THP1-Lucia ISG, read-out: fold increase of IRF3-dependent luciferase activity over background, THP1 ISG
How it was run: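 PMA-differentiated THP-1 reporter cells (ISRE/ISG54 promoter driving secreted luciferase), plus CRISPR IRF3−/− line, treated with compounds at 5–20 μM (mostly 10 μM). Luciferase measured 18 h later; values are fold increase over untreated background, binned from <2.4 to ≥40.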

[4] = tested on: murine CT26 colon carcinoma cells; assay: RIG-I dependent CXCL10 secretion by CT26 cells (ELISA); format: cell-based; conditions: 10 μM compound, supernatant 24 h after stimulation
How it was run: as §1

Compound	fold increase of luciferase activity, THP1 ISG IRF3−/− [1]	CXCL10 secretion, CT26 RIG-I−/− [2]	fold increase of IRF3-dependent luciferase activity over background, THP1 ISG ([3]; 10 μM compound)	CXCL10 secretion, CT26 [4]	fold increase of IRF3-dependent luciferase activity over background, THP1 ISG ([3]; 5 μM compound (**))	fold induction at 10 µM ([3]; 10 μM compound)
COc1nc2c(ccc3cc(NC(=O)c4cc5ccsc5cc4OCCCCN4CCOCC4)sc32)s1 [Example 68, N-{4-methoxy-5,12-dithia-3-azatricyclo[7.3.0.0^2,^6]dodeca-1,3,6,8,10-pentaen-11-yl}-6-[4-(morpholin-4-yl)butoxy]-1-benzothiophene-5-carboxamide]	− (less than 0.5 fold above baseline was considered below the level of quantitation)	−				
O=C(Nc1cc2ccc3scnc3c2s1)c1cc2ccsc2cc1OCCN1CCOCC1 [Example 65, N-{5,12-dithia-3-azatricyclo[7.3.0.0^2,^6]dodeca-1,3,6,8,10-pentaen-11-yl}-6-[2-(morpholin-4-yl)ethoxy]-1-benzothiophene-5-carboxamide]	− (less than 0.5 fold above baseline was considered below the level of quantitation)		+ (a 2.4-4.9 fold increase)	≠ (less than 100 pg/mL)		
O=C(Nc1cc2ccc3scnc3c2s1)c1cc2ccccc2cc1OCCN1CCOCC1 [Example 55, N-{5,12-dithia-3-azatricyclo[7.3.0.0^2,^6]dodeca-1,3,6,8,10-pentaen-11-yl}-3-[2-(morpholin-4-yl)ethoxy]naphthalene-2-carboxamide]	− (less than 0.5 fold above baseline was considered below the level of quantitation)	−	+++ (a 10-19 fold increase)	≠ (less than 100 pg/mL)		
O=C(Nc1cc2ccc3scnc3c2s1)c1cc2c(cc1OCCN1CCOCC1)OCO2 [Example 63, N-{5,12-dithia-3-azatricyclo[7.3.0.0^2,^6]dodeca-1,3,6,8,10-pentaen-11-yl}-6-[2-(morpholin-4-yl)ethoxy]-2H-1,3-benzodioxole-5-carboxamide]	− (less than 0.5 fold above baseline was considered below the level of quantitation)	−	≠ (less than 2.4 fold increase)	≠ (less than 100 pg/mL)		
O=C(Nc1nc2ccc3sccc3c2s1)c1cc2ccccc2cc1OCCCCN1CCOCC1 [Example 49, N-{3,10-dithia-5-azatricyclo[7.3.0.0^2,^6]dodeca-1,4,6,8,11-pentaen-4-yl}-3-[4-(morpholin-4-yl)butoxy]naphthalene-2-carboxamide]	− (less than 0.5 fold above baseline was considered below the level of quantitation)	−	+++ (a 10-19 fold increase)	++++ (800 to 1599 pg/mL)		
O=C(Nc1nc2ccc3scnc3c2o1)c1cc2ccccc2cc1OCCN1CCOCC1 [Example 58, 3-[2-(morpholin-4-yl)ethoxy]-N-{3-oxa-10-thia-5,12-diazatricyclo [7.3.0.0^2,^6]dodeca-1,4,6,8,11-pentaen-4-yl}naphthalene-2-carboxamide]	− (less than 0.5 fold above baseline was considered below the level of quantitation)	−	+ (a 2.4-4.9 fold increase)	+ (100-199 pg/mL)		
O=C(Nc1nc2ccc3ocnc3c2s1)c1cc2ccccc2cc1OCCCCN1CCOCC1 [Example 53, 3-[4-(morpholin-4-yl)butoxy]-N-{10-oxa-3-thia-5,12-diazatricyclo [7.3.0.0^2,^6]dodeca-1,4,6,8,11-pentaen-4-yl}naphthalene-2-carboxamide]	− (less than 0.5 fold above baseline was considered below the level of quantitation)	−	++ (a 5-9.9 fold increase)	+++++ (greater than or equal to 1600 pg/ml)		
[N-(7-hydroxybenzo[1,2-d:3,4-d′]bis(thiazole)-2-yl)-3-(4-morpholinobutoxy)-2-naphthamide hydrochloride] [Example 44]	− (less than 0.5 fold above baseline was considered below the level of quantitation)	−		+++ (400-799 pg/mL)	++** (a 5-9.9 fold increase)	
O=C(Nc1nc2ccc3occc3c2s1)c1cc2ccccc2cc1OCCCCN1CCOCC1 [Example 50, 3-[4-(morpholin-4-yl)butoxy]-N-{10-oxa-3-thia-5-azatricyclo[7.3.0.0^2,^6]dodeca-1,4,6,8,11-pentaen-4-yl}naphthalene-2-carboxamide]	− (less than 0.5 fold above baseline was considered below the level of quantitation)	−	+++ (a 10-19 fold increase)	++ (200-399 pg/mL)		
O=C(Nc1nc2ccc3ocnc3c2s1)c1cc2ccccc2cc1OCCN1CCOCC1 [Example 52, 3-[2-(morpholin-4-yl)ethoxy]-N-{10-oxa-3-thia-5,12-diazatricyclo[7.3.0.0^2,^6]dodeca-1,4,6,8,11-pentaen-4-yl}naphthalene-2-carboxamide]	− (less than 0.5 fold above baseline was considered below the level of quantitation)	−	+ (a 2.4-4.9 fold increase)	+ (100-199 pg/mL)		
6-[2-(morpholin-4-yl)ethoxy]-N-{4-oxo-5,12-dithia-3-azatricyclo[7.3.0.0^2,^6]dodeca-1,6,8,10-tetraen-11-yl}-1-benzothiophene-5-carboxamide [Example 70]	− (less than 0.5 fold above baseline was considered below the level of quantitation)	−				
Cn1ccc2cc(OCCN3CCOCC3)c(C(=O)Nc3nc4ccc5scnc5c4s3)cc21 [Example 69, N-{3,10-dithia-5,12-diazatricyclo[7.3.0.0^2,^6]dodeca-1,4,6,8,11-pentaen-4-yl}-1-methyl-5-[2-(morpholin-4-yl)ethoxy]-1H-indole-6-carboxamide]	− (less than 0.5 fold above baseline was considered below the level of quantitation)	−				
N-{4-methoxy-5,12-dithia-3-azatricyclo[7.3.0.0^2,^6]dodeca-1,3,6,8,10-pentaen-11-yl}-6-[2-(morpholin-4-yl)ethoxy]-1-benzothiophene-5-carboxamide [Example 67]	− (less than 0.5 fold above baseline was considered below the level of quantitation)	−				
O=C(Nc1nc2ccc3scnc3c2s1)c1cc2ccccc2cc1OCCN1CCCCC1 [Example 25, N-{3,10-dithia-5,12-diazatricyclo[7.3.0.0^2,^6]dodeca-1,4,6,8,11-pentaen-4-yl}-3-[2-(piperidin-1-yl)ethoxy]naphthalene-2-carboxamide]		−		++ (200-399 pg/mL)		2.4 to 4.9
COc1nc2c(ccc3nc(NC(=O)c4cc5ccccc5cc4OCCN4CCCCC4)sc32)s1 [Example 30, N-{11-methoxy-3,10-dithia-5,12-diazatricyclo[7.3.0.0^2,^6]dodeca-1,4,6,8,11-pentaen-4-yl}-3-[2-(piperidin-1-yl)ethoxy]naphthalene-2-carboxamide]		−		+++ (400-799 pg/mL)		10 to 19
